We go through ten compounds from US4136186A, “Thieno[3,2-c]pyridine derivatives” (Parcor, priority 1976, dated 1979).

The subject of assay [1] is A.D.P.-induced blood-platelet aggregation. Put plainly: A.D.P.-induced blood-platelet aggregation (plasma of orally treated rats). It counts as in vivo, rats of Wistar strain. As to conditions: Rattus norvegicus, oral 100 mg/kg, 3 hours after treatment, 10 μM A.D.P., read-out: Percent inhibition of blood-platelet aggregation, A.D.P. On the procedure:
(§1) A blood sample is taken from the jugular vein of rats of Wistar strain. From this citrated blood, and after centrifugation, is reconstituted a plasma containing 600,000 ± 20,000 platelets per mm^3 which will be used in all aggregation determinations. (a) Determination of A.D.P.-induced blood-platelet aggregation 0.4 ml plasma is placed in a siliconized tube provided with a magnetic bar, which is also siliconized. The tube is introduced into an aggregometer connected with an optical density variation recorder. When light transmission has reached a stable value, 0.5 ml of a solution containing 10 μM A.D.P. (adenosine-diphosphate) are introduced in the tube. Blood-platelet aggregation then induces an increase of light transmission followed by a decrease subsequent to the deaggregation phase. The thus determined maximum variation of optical density characterizes the intensity of the aggregation. Different groups of 20 rats are used, each group being administered orally a test derivative, at a dosage of 100 mg/kg. The results obtained in the course of tests a) and b) are tabulated in following Table I which indicates the percent inhibition of blood-plateletaggregation obtained, with respect to the control, 3 hours after treatment.

Assay [2] has as its system carrageenin-induced edema. Put plainly: Localised carrageenin-induced edema method. The format is in vivo. As to conditions: Rattus norvegicus, rats, oral 100 mg/kg at -1, 0, 1 and 2.5 hours. Here is the method: (a) Localised carrageenin-induced edema method: A 1% carrageenin solution (0.1 ml) is injected in the metatarsal flexor muscles of the right hind limb of rats at time 0. The animals of the treated group are additionally administered orally 100 mg/kg of the test derivative, respectively one hour prior to and then simultaneously with the phlogogenic agent, and then one hour and 2.5 hours thereafter. The percent antiinflammatory activity, as a function of time, is determined with respect to the control group by measurements effected with a ROCH micrometer at times 0, one hour, two hours, three hours and five hours after carrageenin administration.
A general note: Carrageenan injected into the paw causes an acute inflammation.

The test system of assay [3] is ovalbumin-induced systemic edema. In words: Ovalbumin-induced systemic edema method. As to conditions: Rattus norvegicus, rats, oral 100 mg/kg one hour prior to and simultaneously with ovalbumin. The format is in vivo. Here is the method:
(b) Ovalbumin-induced systemic edema method Rats are administered a simultaneous intraperitoneal injection of 1 ml ovalbumin and 0.5 ml of a 1% aqueous Evans Blue solution. The animals of the treated group are additionally administered orally 100 mg/kg of the test derivative, one hour prior to and simultaneously with said ovalbumin administration. The intensity of the phenomenon thus induced is scored according to a scale from 1 to 5, according to the progress of the inflammatory syndrome. Thus are determined with respect to the control group the mean intensity and the percent decrease of the edema reaction, as a function of time. The percent anti-inflammatory activity obtained 2 hours and 3 hours, respectively, after ovalbumin injection, is tabulated in following Table III: […]

The test system of assay [4] is collagen-induced blood-platelet aggregation. Put plainly: Collagen-induced blood-platelet aggregation (plasma of orally treated rats). As to conditions: Rattus norvegicus, oral 100 mg/kg, 3 hours after treatment, collagen (bovine tendon extract), read-out: Percent inhibition of blood-platelet aggregation, Collagen. The format is in vivo, rats of Wistar strain. On the procedure: as §1, with “determinations.” for “determinations. (a) Determination of A.D.P.-induced blood-platelet aggregation”, “aggregation. (b) Determination of collagen-induced blood-platelet aggregation The A.D.P. solution is substituted with a collagen solution (bovine tendon extract).” for “aggregation.”

The nature of assay [5]: Potentiation of hypnotics (infrahypnotic sodium pentobarbital). As to conditions: mice, oral 50 mg/kg, thirty minutes prior to i.p. infrahypnotic sodium pentobarbital. The format is in vivo. Here is the method: In addition, the compounds of the formula (I) potentiate very markedly the effect of hypnotics. Indeed, on oral administration to different groups of mice, at a dosage of 50 mg/kg, thirty minutes prior to intraperitoneal injection of an infrahypnotic dosage of sodium pentobarbital, they produce, with respect to the untreated reference animals, a marked potentiation of the barbiturate.

Setting [6] is: 1 hour after carrageenin, read-out: Percent anti-inflammatory activity after 1 hour.
Setting [7] is: 2 hours after carrageenin, read-out: Percent anti-inflammatory activity after 2 hours.
[8] abbreviates: 3 hours after carrageenin, read-out: Percent anti-inflammatory activity after 3 hours.
[9] abbreviates: 5 hours after carrageenin, read-out: Percent anti-inflammatory activity after 5 hours.
[10] abbreviates: 2 hours after ovalbumin injection, read-out: Percent anti-inflammatory activity after 2 hours.
Setting [11] is: 3 hours after ovalbumin injection, read-out: Percent anti-inflammatory activity after 3 hours.

Where two headings read alike, the source gives them in different places.

Turning to `CCOC(=O)c1sc2c(c1O)CN(Cc1ccccc1Cl)CC2` [Derivative n°1, 5-o-Chlorobenzyl-2-ethoxycarbonyl-3-hydroxy-4,5,6,7-tetrahydro-thieno[3,2-c]pyridine], the inhibition in vivo at 100 mg/kg in assay [1] was determined as 61.2%; in assay [2] (setting [6]) it was 46%; in assay [2] (setting [7]) it was 53%; in assay [2] (setting [8]), 56%; in assay [2] (setting [9]) it was 60%; in assay [3] (setting [10]), 54%. Also, the inhibition in vivo at 100 mg/kg in assay [3] (setting [11]) worked out at 63%; in assay [4] it was 90.2%. Moreover, the “percent animals put to sleep” value in assay [5] was 60%.
For the compound `CCOC(=O)c1sc2c(c1O)CN(C(=O)c1ccccc1)CC2` [Derivative n°2, 5-benzoyl-2-ethoxycarbonyl-3-hydroxy-4,5,6,7-tetrahydro-thieno[3,2-c]pyridine], the inhibition in vivo at 100 mg/kg was found to be 62.8% in assay [1]; 42% in assay [2] (setting [6]); 48% in assay [2] (setting [7]); 50% in assay [2] (setting [8]); 53% in assay [2] (setting [9]); 49% in assay [3] (setting [10]). Also, the inhibition in vivo at 100 mg/kg in assay [3] (setting [11]) worked out at 58%; in assay [4], 94.6%. The “percent animals put to sleep” value in assay [5] was determined as 60%.
Consider `CCOC(=O)c1sc2c(c1OC(C)=O)CN(Cc1ccccc1Cl)CC2` [Derivative n°3, 3-acetoxy-5-o-chlorobenzyl-2-ethoxycarbonyl-4,5,6,7-tetrahydro-thieno[3,2-c]pyridine], for which the inhibition in vivo at 100 mg/kg amounted to 62.4% in assay [1]; 38% in assay [2] (setting [6]); 45% in assay [2] (setting [7]); 49% in assay [2] (setting [8]); 51% in assay [2] (setting [9]); 51% in assay [3] (setting [10]). For the same compound, the figures for the inhibition in vivo at 100 mg/kg in assay [3] (setting [11]) and in assay [4] were 59% and 92.9%, respectively. The “percent animals put to sleep” value in assay [5] was found to be 80%.
`CCOC(=O)c1sc2c(c1O)CN(Cc1ccccc1)CC2.Cl` [Derivative n°4, 5-Benzyl-2-ethoxycarbonyl-3-hydroxy-4,5,6,7-tetrahydro-thieno[3,2-c]pyridine hydrochloride]: the inhibition in vivo at 100 mg/kg came out at 64.8% in assay [1]; 39% in assay [2] (setting [6]); 45% in assay [2] (setting [7]); 50% in assay [2] (setting [8]); 53% in assay [2] (setting [9]); 48% in assay [3] (setting [10]). Further, the figures for the inhibition in vivo at 100 mg/kg in assay [3] (setting [11]) and in assay [4] were 56% and 95.2%, respectively. Also, the “percent animals put to sleep” value in assay [5] is recorded as 70%.
`COC(=O)c1sc2c(c1O)CN(Cc1ccccc1Cl)CC2` [Derivative n°5, 5-o-Chlorobenzyl-3-hydroxy-2-methoxycarbonyl-4,5,6,7-tetrahydro-thieno[3,2-c]pyridine]: the inhibition in vivo at 100 mg/kg in assay [1] came to 64.4%; in assay [2] (setting [6]), 41%; in assay [2] (setting [7]), 47%; in assay [2] (setting [8]), 51%; in assay [2] (setting [9]) it was 55%; in assay [3] (setting [10]), 47%. For the same compound, the inhibition in vivo at 100 mg/kg in assay [3] (setting [11]) was determined as 55%; in assay [4], 96.7%. In addition, in assay [5], the “percent animals put to sleep” value is listed as 70%.
With `CCOC(=O)c1sc2c(c1O)CN(C)CC2` [Derivative n°6, 2-Ethoxycarbonyl-3-hydroxy-5-methyl-4,5,6,7-tetrahydro-thieno[3,2-c]pyridine], the inhibition in vivo at 100 mg/kg in assay [1] was 63.8%; in assay [2] (setting [6]), 34%; in assay [2] (setting [7]), 40%; in assay [2] (setting [8]), 43%; in assay [2] (setting [9]) it was 48%; in assay [3] (setting [10]), 52%. The inhibition in vivo at 100 mg/kg in assay [3] (setting [11]) was found to be 59%; in assay [4], 93.2%. Further, the “percent animals put to sleep” value in assay [5] amounted to 90%.
As for `CCOC(=O)c1sc2c(c1O)CNCC2` [Derivative n°7, 2-Ethoxycarbonyl-3-hydroxy-4,5,6,7-tetrahydro-thieno[3,2-c]pyridine], the inhibition in vivo at 100 mg/kg in assay [1] is 62.5%; in assay [2] (setting [6]) it was 36%; in assay [2] (setting [7]) it was 41%; in assay [2] (setting [8]), 45%; in assay [2] (setting [9]) it was 52%; in assay [3] (setting [10]) it was 50%. For the same compound, the results for the inhibition in vivo at 100 mg/kg in assay [3] (setting [11]) and in assay [4] were 60% and 95.6%, respectively. Further, in assay [5], the “percent animals put to sleep” value is 90%.
With `COC(=O)c1sc2c(c1O)CNCC2` [Derivative n°8, 3-Hydroxy-2-methoxycarbonyl-4,5,6,7-tetrahydro-thieno[3,2-c]pyridine], the inhibition in vivo at 100 mg/kg in assay [1] was 62.1%; in assay [2] (setting [6]), 43%; in assay [2] (setting [7]), 49%; in assay [2] (setting [8]) it was 53%; in assay [2] (setting [9]), 55%; in assay [3] (setting [10]), 48%. In addition, the results for the inhibition in vivo at 100 mg/kg in assay [3] (setting [11]) and in assay [4] were 57% and 94.3%, respectively. Besides, in assay [5], the “percent animals put to sleep” value is 80%.
As to `CCOC(=O)c1sc2c(c1O)CN(CCc1ccccc1)CC2` [Derivative n°9, 2-Ethoxycarbonyl-3-hydroxy-5-phenethyl-4,5,6,7-tetrahydro-thieno[3,2-c]pyridine], the inhibition in vivo at 100 mg/kg in assay [1] amounted to 64.5%; in assay [2] (setting [6]) it was 42%; in assay [2] (setting [7]) it was 46%; in assay [2] (setting [8]), 50%; in assay [2] (setting [9]), 54%; in assay [3] (setting [10]), 53%. The figures for the inhibition in vivo at 100 mg/kg in assay [3] (setting [11]) and in assay [4] were 62% and 93.8%, respectively. For the same compound, in assay [5], the “percent animals put to sleep” value is reported as 100%.
On to `CCCCOC(=O)c1sc2c(c1O)CN(Cc1ccccc1Cl)CC2` [Derivative n°10, 2-Butoxycarbonyl-5-o-chlorobenzyl-3-hydroxy-4,5,6,7-tetrahydro-thieno[3,2-c]pyridine], for which the inhibition in vivo at 100 mg/kg amounted to 63.6% in assay [1]; 37% in assay [2] (setting [6]); 42% in assay [2] (setting [7]); 48% in assay [2] (setting [8]); 51% in assay [2] (setting [9]); 50% in assay [3] (setting [10]). In addition, the inhibition in vivo at 100 mg/kg in assay [3] (setting [11]) stood at 59%; in assay [4], 90.2%. Besides, the “percent animals put to sleep” value in assay [5] came out at 90%.
